Patent publication US9187471B2, “Pyrido [4,3-b] indole and pyrido [3,4-b] indole derivatives and methods of use” (Medivation Technologies, Inc., priority 2010, dated 2015)

Assays:
[1] = biological target: T1, human recombinant adrenergic α2C receptor (Homo sapiens, UniProt P18825); assay: Adrenergic α2C radioligand binding ([3H]MK-912); details: read-out: Adrenergic (0.1 μM) a2C, percent inhibition of specific binding; compound at 0.1 μM; 1 nM [3H]MK-912
T1 construct: expressed in transfected cells; host or cells: insect Sf9 cells
T1 sequence (P18825 1-462): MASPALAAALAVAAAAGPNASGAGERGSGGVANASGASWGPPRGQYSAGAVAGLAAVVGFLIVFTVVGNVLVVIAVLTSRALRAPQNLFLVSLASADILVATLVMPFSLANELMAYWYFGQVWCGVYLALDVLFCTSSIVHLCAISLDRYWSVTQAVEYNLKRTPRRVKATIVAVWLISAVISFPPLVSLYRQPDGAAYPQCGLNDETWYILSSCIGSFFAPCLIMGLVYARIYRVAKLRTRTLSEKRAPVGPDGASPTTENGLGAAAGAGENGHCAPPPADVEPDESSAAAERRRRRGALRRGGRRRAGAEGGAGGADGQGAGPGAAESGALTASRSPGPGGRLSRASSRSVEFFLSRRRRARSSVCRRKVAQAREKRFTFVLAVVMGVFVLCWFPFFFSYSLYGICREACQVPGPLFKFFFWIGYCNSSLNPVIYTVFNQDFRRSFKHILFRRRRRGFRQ
Experimental: To evaluate in radioligand binding assays the activity of compounds of the invention, human recombinant adrenergic α2C receptor expressed in insect Sf9 cells (Uhlen, S. et al, J. Pharmacol. Exp. Ther. 271:1558, 1994) in a modified Tris-HCl buffer (50 mM Tris-HCl, pH 7.4, 12.5 mM MgCl2, 2 mM EDTA) was used. Compounds of the invention were incubated with 1 nM [^3H]MK-912 for 60 min at 25° C. Non-specific binding was estimated in the presence of 10 μM WB-4101. Receptor proteins were filtered and washed, the filters were then counted to determine [^3H]MK-912 specifically bound. […] Compounds of the invention were tested in this biochemical assay and percent inhibition of specific binding was determined.

[2] = biological target: T2, rat adrenergic α1A receptor (Rattus norvegicus, UniProt P43140); assay: Adrenergic α1A radioligand binding ([3H]Prazosin); details: read-out: Adrenergic (0.1 μM) a1A, percent inhibition of specific binding; compound at 0.1 μM; 0.25 nM [3H]Prazosin
T2 construct: rat adrenergic α1A receptor obtained from Wistar Rat submaxillary glands; from tissue; host or cells: Wistar rat submaxillary glands
T2 sequence (P43140 1-466): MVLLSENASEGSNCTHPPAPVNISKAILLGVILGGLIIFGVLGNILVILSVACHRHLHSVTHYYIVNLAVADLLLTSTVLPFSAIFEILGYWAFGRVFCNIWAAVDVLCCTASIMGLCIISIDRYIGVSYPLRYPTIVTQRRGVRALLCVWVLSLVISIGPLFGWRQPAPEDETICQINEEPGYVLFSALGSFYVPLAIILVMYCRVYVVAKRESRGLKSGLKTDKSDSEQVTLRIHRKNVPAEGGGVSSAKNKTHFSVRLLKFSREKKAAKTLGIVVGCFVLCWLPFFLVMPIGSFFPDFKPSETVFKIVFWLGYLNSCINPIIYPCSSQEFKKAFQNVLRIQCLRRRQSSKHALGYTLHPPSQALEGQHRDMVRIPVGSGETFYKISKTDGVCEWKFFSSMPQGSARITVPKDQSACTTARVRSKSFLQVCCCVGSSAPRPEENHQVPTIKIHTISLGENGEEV
Experimental: To evaluate in radioligand binding assays the activity of compounds of the invention, rat adrenergic α1A receptor obtained from Wistar Rat submaxillary glands (Michel, A. et al, Br. J. Pharmacol. 98:883, 1989) in a modified Tris-HCl buffer (50 mM Tris-HCl buffer, pH 7.4, 0.5 mM EDTA) was used. Compounds of the invention were incubated with 0.25 nM [^3H]Prazosin for 60 min at 25° C. Non-specific binding was estimated in the presence of 10 μM phentolamine Receptor proteins were filtered and washed, the filters were then counted to determine [^3H]Prazosin specifically bound. […] Compounds of the invention were tested in this biochemical assay and percent inhibition of specific binding was determined.

[3] = biological target: T3, human recombinant serotonin (5-Hydroxytryptamine) 5-HT5A receptor (Homo sapiens, UniProt P47898); assay: Serotonin 5-HT5A radioligand binding ([3H]LSD); details: compound at 0.1 μM; read-out: Inhibition of ligand binding, Serotonin 5-HT5A (percent inhibition of specific binding)
T3 construct: expressed in transfected cells; host or cells: CHO-K1
Experimental: Compounds of the invention were incubated with 1.7 nM [^3H]Lysergic acid diethylamide (LSD) for 60 min at 37° C. […] Receptor proteins were filtered and washed, the filters were counted to determine [^3H]LSD specifically bound.

[4] = biological target: T4, human recombinant serotonin (5-Hydroxytryptamine) 5-HT2A receptor (Homo sapiens, UniProt P28223); assay: Serotonin 5-HT2A radioligand binding ([3H]Ketanserin); details: compound at 0.1 μM; read-out: Inhibition of ligand binding, Serotonin 5-HT2A (percent inhibition of specific binding)
T4 construct: expressed in transfected cells; host or cells: CHO-K1
Experimental: Compounds of the invention were incubated with 0.5 nM [^3H]Ketanserin for 60 min at 25° C. Non-specific binding was estimated in the presence of 1 μM Mianserin. Receptor proteins were filtered and washed, the filters were then counted to determine [^3H]Ketanserin specifically bound.

[5] = biological target: T5, human recombinant serotonin (5-Hydroxytryptamine) 5-HT2C receptor (Homo sapiens, UniProt P28335); assay: Serotonin 5-HT2C radioligand binding ([3H]Mesulergine); details: compound at 0.1 μM; read-out: Inhibition of ligand binding, Serotonin 5-HT2C (percent inhibition of specific binding)
T5 construct: expressed in transfected cells; host or cells: CHO-K1
T5 sequence (P28335 33-458): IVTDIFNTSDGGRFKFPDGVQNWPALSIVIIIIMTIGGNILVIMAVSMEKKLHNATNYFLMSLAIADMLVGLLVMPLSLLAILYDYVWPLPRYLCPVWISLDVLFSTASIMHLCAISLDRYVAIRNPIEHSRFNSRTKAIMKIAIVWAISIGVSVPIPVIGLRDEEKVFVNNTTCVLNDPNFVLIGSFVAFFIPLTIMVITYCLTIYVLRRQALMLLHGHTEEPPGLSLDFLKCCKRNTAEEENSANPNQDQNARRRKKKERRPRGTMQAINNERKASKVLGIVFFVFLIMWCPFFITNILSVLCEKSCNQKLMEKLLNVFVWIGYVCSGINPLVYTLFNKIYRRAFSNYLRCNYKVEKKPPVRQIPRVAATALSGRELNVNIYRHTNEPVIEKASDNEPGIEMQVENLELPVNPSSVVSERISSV
Experimental: Compounds of the invention were incubated with 1 nM [^3H]Mesulergine for 60 min at 25° C. Non-specific binding was estimated in the presence of 1 μM Mianserin. Receptor proteins were filtered and washed, the filters were then counted to determine [^3H]Mesulergine specifically bound.

T3 sequence (P47898 whole entry): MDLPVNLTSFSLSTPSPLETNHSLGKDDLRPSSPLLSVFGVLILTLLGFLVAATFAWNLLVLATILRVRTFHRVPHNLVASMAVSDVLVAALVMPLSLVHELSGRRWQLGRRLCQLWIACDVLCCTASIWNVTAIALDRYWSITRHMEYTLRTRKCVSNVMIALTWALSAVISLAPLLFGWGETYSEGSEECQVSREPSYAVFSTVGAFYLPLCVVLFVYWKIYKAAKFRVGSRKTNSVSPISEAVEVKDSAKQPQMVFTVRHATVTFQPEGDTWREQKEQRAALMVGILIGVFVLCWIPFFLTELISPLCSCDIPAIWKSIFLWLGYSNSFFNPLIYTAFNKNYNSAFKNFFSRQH
T4 sequence (P28223 whole entry): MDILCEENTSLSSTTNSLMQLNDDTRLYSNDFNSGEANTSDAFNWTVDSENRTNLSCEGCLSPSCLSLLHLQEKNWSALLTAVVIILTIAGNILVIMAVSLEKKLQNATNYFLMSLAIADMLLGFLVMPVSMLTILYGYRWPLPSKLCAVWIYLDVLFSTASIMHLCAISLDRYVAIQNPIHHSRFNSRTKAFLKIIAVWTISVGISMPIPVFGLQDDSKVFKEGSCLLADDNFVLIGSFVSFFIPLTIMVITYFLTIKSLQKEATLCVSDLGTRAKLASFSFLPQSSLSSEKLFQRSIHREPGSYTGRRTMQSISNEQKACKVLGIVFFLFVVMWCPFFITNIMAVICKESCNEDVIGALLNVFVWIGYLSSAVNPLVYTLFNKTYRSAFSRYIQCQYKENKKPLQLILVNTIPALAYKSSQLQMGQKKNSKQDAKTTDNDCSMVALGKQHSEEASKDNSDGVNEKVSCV

SMILES	inhibition at 0.1 µM [1] [%]	inhibition at 0.1 µM [2] [%]	inhibition at 0.1 µM [3] [%]	inhibition at 0.1 µM [4] [%]	inhibition at 0.1 µM [5] [%]
Cc1cc(C)c2c(c1)c1c(n2-c2cccc(-c3ccncc3)c2)CCN(C)C1 [Compound 57, 2,6,8-trimethyl-5-(3-(pyridin-4-yl)phenyl)-2,3,4,5-tetrahydro-1H-pyrido[4,3-b]indole]	3	3	26	70	28
Cc1ccc2c(c1)c1c(n2-c2cscc2-c2ccc3c(ccn3C)c2)CCN(C)C1 [Compound 33]	87	57	93	39	49
Cc1ccc2c(c1)c1c(n2-c2cccc(-c3cnc(N(C)C)nc3)c2)CCN(C)C1 [Compound 42, 5-(3-(2,8-dimethyl-3,4-dihydro-1H-pyrido[4,3-b]indol-5(2H)-yl)phenyl)-N,N-dimethylpyrimidin-2-amine]	-11	9	11	62	32
Cc1ccc2c(c1)c1c(n2-c2ccc(-c3cncc4ccccc34)cn2)CCN(C)C1 [Compound No. 135, 5-(5-(isoquinolin-4-yl)pyridin-2-yl)-2,8-dimethyl-2,3,4,5-tetrahydro-1H-pyrido[4,3-b]indole]	13	36	77	72	88
Cc1ccc2c(c1)c1c(n2-c2ccc(-c3ccc(F)cc3)cn2)CCN(C)C1 [Compound No. 140, 5-(5-(4-fluorophenyl)pyridin-2-yl)-2,8-dimethyl-2,3,4,5-tetrahydro-1H-pyrido[4,3-b]indole]	53	31	52	104	100
Cc1ccc2c(c1)c1c(n2-c2cscc2-c2cnn(C)c2)CCN(C)C1 [Compound 30]	10	62	77	92	84
Cc1ccc2c(c1)c1c(n2-c2cccc(-c3cncc4ccccc34)c2)CCN(C)C1 [Compound No. 67, 5-(3-(isoquinolin-4-yl)phenyl)-2,8-dimethyl-2,3,4,5-tetrahydro-1H-pyrido[4,3-b]indole]	8	1	39	75	23
CNC(=O)c1ccc(-c2ccccc2-n2c3c(c4cc(C)ccc42)CN(C)CC3)cn1 [Compound No. 71, 5-(2-(2,8-dimethyl-3,4-dihydro-1H-pyrido[4,3-b]indol-5(2H)-yl)phenyl)-N-methylpicolinamide]	-1	65	29	1	15
Cc1ccc2c(c1)c1c(n2-c2cscc2-c2cnc(N(C)C)nc2)CCN(C)C1 [Compound 40]	-17	43	76	31	35
Cc1csc(-c2cccc(-n3c4c(c5cc(C)ccc53)CN(C)CC4)c2)c1 [Compound No. 63, 2,8-dimethyl-5-(3-(4-methylthiophen-2-yl)phenyl)-2,3,4,5-tetrahydro-1H-pyrido[4,3-b]indole]	10	-8	25	101	77
Cc1csc(-c2cscc2-n2c3c(c4cc(C)ccc42)CN(C)CC3)c1 [Compound 50]	90	65	81	86	92
Cc1ccc2c(c1)c1c(n2-c2cccc(-c3cnn(C)c3)c2)CCN(C)C1 [Compound 46, 2,8-dimethyl-5-(3-(1-methyl-1H-pyrazol-4-yl)phenyl)-2,3,4,5-tetrahydro-1H-pyrido[4,3-b]indole]	6	16	32	84	41
Cc1ccc2c(c1)c1c(n2-c2ccc(-c3cccc4ccccc34)cn2)CCN(C)C1 [Compound No. 141, 2,8-dimethyl-5-(5-(naphthalen-1-yl)pyridin-2-yl)-2,3,4,5-tetrahydro-1H-pyrido[4,3-b]indole]	16	33	87	61	92
CC(=O)Nc1ccc(-c2ccc(-n3c4c(c5cc(C)ccc53)CN(C)CC4)nc2)cn1 [Compound No. 139, N-(6′-(2,8-dimethyl-3,4-dihydro-1H-pyrido[4,3-b]indol-5(2H)-yl)-3,3′-bipyridin-6-yl)acetamide]	2	22	-4	64	65
Cc1ccc2c(c1)c1c(n2-c2ccccc2-c2c(C)noc2C)CCN(C)C1 [Compound No. 82, 4-(2-(2,8-dimethyl-3,4-dihydro-1H-pyrido[4,3-b]indol-5(2H)-yl)phenyl)-3,5-dimethylisoxazole]	7	3	9	73	68
